# Assay results taken from EP3122315B1, “ACTIVE-INGREDIENT COMBINATIONS CONSISTING OF 4-HYDROXYACETOPHENONE AND ONE OR MORE GLYCERIN AND/OR OLIGOGLYCERIN ESTERS OF BRANCHED CHAINS AND/OR UNBRANCHED CHAINS OF ALKANE CARBOXYLIC ACIDS, AND COSMETIC OR DERMATOLOGICAL PREPARATIONS CONTAINING SAID ACTIVE-INGREDIENT COMBINATIONS” (Symrise AG, priority 2014, dated 2015).
# Like-named read-outs stand apart in the source and are kept apart here.
# Test: Solubility tests of 4-hydroxyacetophenone in cosmetic oil with or without glycerol ester additive
# Conditions: for Löslichkeit "HAP" bei 35 °C / Löslichkeit "HAP" bei RT: solvent C12-15 Alkylbenzoate; for Löslichkeit "HAP" bei RT: room temperature (ca. 20 °C)
# Protocol: Die Durchführung der Löslichkeitsversuche erfolgte bei 2 verschiedenen Temperaturen: Bei Raumtemperatur (ca. 20 °C) und bei 35 °C.
# Das weiße, kristalline 4-Hydroxyacetophenon ("4-HAP") wurde in kleinen Portionen langsam (über mehrere Stunden) zum jeweiligen Lösungsmittel unter Rühren hinzugegeben, bis sich kein weiteres Material mehr lösen ließ. Hier war die Löslichkeitsgrenze erreicht. Nicht gelöstes Material war deutlich als milchiger Niederschlag oder einzelne Kristalle erkennbar. Das Additiv (der jeweilige Glycerinester) wurde ebenfalls in kleinen Portionen hinzugegeben.
# Die Experimente bei 35°C wurden im Wasserbad durchgeführt. Die Temperatur wurde per Temperatursonde, welche mit dem Heizrührer verbunden war, konstant gehalten. Die Experimente wurden in verschraubten 15 ml Gläsern durchgeführt, um ein Verdampfen des Lösungsmittels zu verhindern. Die Löslichkeit wurde 12-24 Stunden nach der letzten Substanzzugabe gemessen, so dass sich das System equilibrieren konnte. […] Die Löslichkeitsversuche wurden in dem bekannten kosmetischen Öl "C12-15 Alkylbenzoate", erhältlich unter anderem unter dem Handelsnamen Tegesoft® TN B von der Firma Evonik, durchgeführt. Die Ergebnisse sind in Tabelle 1 wiedergegeben: Tabelle 1
compound,measurement,setting,value
Glycerylstearatcitrate [reference compound],Einfluss auf die Löslichkeit von 4-Hydroxyacetophenon,,keinen Einfluss
CCCCCCCC(=O)OCC(O)CO (centres unmarked) [Glycerylcaprylat],Löslichkeit des Glycerylesters im verwendeten Lösungsmittel (kosmetischen öl),,vollständig
"CC(=O)c1ccc(O)cc1 [HAP, 4-Hydroxyacetophenon]","Kristalle mit (Löslichkeit ""HAP"" bei 35 °C)","concentration at which undissolved crystals were seen, no glycerol ester, C12-15 Alkylbenzoate, 35 °C",3%
same,"Kristalle bei (Löslichkeit ""HAP"" bei RT)","concentration at which undissolved crystals were seen, no glycerol ester, C12-15 Alkylbenzoate, room temperature","2,25%"
same,"Löslichkeit ""HAP"" bei 35 °C","no glycerol ester (Ohne), 35 °C water bath","2,5%"
same,"Löslichkeit ""HAP"" bei RT","no glycerol ester (Ohne), read 12-24 h after last addition",2%
same,"Löslichkeit ""HAP"" bei RT","with 0,5 % Polyglyceryl-2-caprat","2,25 % gelöst"
same,"Löslichkeit ""HAP"" bei 35 °C","with 1 % Glycerylcaprylat, 35 °C","3 % gelöst (Steigerung im Vergleich zu 2,5 % ohne Ester"
same,"Löslichkeit ""HAP"" bei RT",with 1 % Glycerylcaprylat,"2,25 % gelöst"
same,"Löslichkeit ""HAP"" bei 35 °C","with 1 % Polyglyceryl-2-caprat, 35 °C","3 % gelöst (Steigerung im Vergleich zu 2,5 % ohne Ester)"
same,"Löslichkeit ""HAP"" bei RT",with 1 % Polyglyceryl-2-caprat,"< 2,25 % nicht vollständig gelöst"
"CCCCCCCCCCCCCCCCCC(=O)OCC(O)CO (centres unmarked) [Glycerylstearate, reference compound]",Einfluss auf die Löslichkeit von 4-Hydroxyacetophenon,"known emulsifier used as additive, concentration not given",keinen Einfluss
Polyglyceryl-2-caprat,Löslichkeit des Glycerylesters im verwendeten Lösungsmittel (kosmetischen öl),"1 % of the ester in C12-15 Alkylbenzoate, 35°C",vollständig
same,Löslichkeit des Glycerylesters im verwendeten Lösungsmittel (kosmetischen öl),"1 % of the ester in C12-15 Alkylbenzoate, RT",vollständig
